Measurements reported in patent US10323018B2 (Millennium Pharmaceuticals, Inc., priority 2015, dated 2019).
pIC50: −log10 of the molar value.

How the values were obtained:
[1] = target: hNAMPT protein (Homo sapiens (Human), UniProt P43490); assay: NAMPT enzyme assay (TR-FRET/HTRF with BodiPY ligand); format: binding; settings: for inhibition at 1 µM: NAMPT inhibition at compound concentration 1 μM, read-out: Percent Inhibition; for pIC50: NAMPT inhibition, IC50 range class
Method in brief: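 His-tagged hNAMPT with anti-6His-Tb, incubated with compound and BodiPY ligand for 1 h at rt in the dark, in Tris-HCl pH 7.5 buffer with DTT, NaCl, MgCl2 and Tween 20. TR-FRET measured with 320 nm excitation as the 520/486 nm emission ratio. IC50 fitted relative to DMSO controls.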

[2] = tested on: PC3 cells; assay: PC3 growth inhibition (Cell-titer glo, 72 hours); format: cell-based; settings: Homo sapiens, PC-3, 72 h, read-out: Percent Viability, PC3 cells, compound concentration 1.667 μM, 72 hours
Method in brief: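 PC3 cells grown in RPMI1640 plated at 8×10^4 cells/ml, incubated overnight, then exposed to compound diluted in AIM serum-free medium for 72 h at 37 °C, 5% CO2. Luminescence by CellTiter-Glo relative to DMSO controls; % viability at single concentration, GI50 or LD50 from concentration-response curves.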

Chain of hNAMPT protein (P43490 whole entry): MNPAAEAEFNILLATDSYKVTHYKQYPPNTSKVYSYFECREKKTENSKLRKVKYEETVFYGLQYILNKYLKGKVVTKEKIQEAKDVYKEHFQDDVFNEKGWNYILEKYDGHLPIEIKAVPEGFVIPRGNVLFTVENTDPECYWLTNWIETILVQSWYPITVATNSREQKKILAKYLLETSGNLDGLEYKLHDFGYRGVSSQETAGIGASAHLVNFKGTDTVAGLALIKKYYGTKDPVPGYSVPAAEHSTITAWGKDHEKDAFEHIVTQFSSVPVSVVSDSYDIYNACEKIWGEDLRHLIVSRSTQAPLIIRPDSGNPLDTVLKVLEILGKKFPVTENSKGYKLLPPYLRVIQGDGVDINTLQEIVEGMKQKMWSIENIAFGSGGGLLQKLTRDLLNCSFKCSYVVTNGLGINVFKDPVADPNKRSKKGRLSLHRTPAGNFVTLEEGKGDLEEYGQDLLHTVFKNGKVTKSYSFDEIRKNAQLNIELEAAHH

## CCOc1cc(-c2ccc(C)s2)nc2cc(C(=O)NCCCc3nnc[nH]3)ccc12 [Compound I-223, 4-ethoxy-2-(5-methyl-2-thienyl)-N-[3-(4H-1,2,4-triazol-3-yl)propyl]quinoline-7-carboxamide]
[1]
  inhibition at 1 µM: > 99%
  pIC50: 7.30 to 8.00
[2]
  viability at 1.667 µM: 3%

## CCOc1cc(-c2ccc(F)cc2)nc2cc(C(=O)NCCCc3cncn3C)ccc12 [Compound I-224, 4-ethoxy-2-(4-fluorophenyl)-N-[3-(1-methyl-1H-imidazol-5-yl)propyl]quinoline-7-carboxamide]
[1]
  inhibition at 1 µM: > 99%
  pIC50: > 8.00
[2]
  viability at 1.667 µM: 2%

## CCOc1cc(-c2cc(OC)ncc2F)nc2cc(C(=O)NCCCc3nnc[nH]3)ccc12 [Compound I-225, 4-ethoxy-2-(5-fluoro-2-methoxypyridin-4-yl)-N-[3-(4H-1,2,4-triazol-3-yl)propyl]quinoline-7-carboxamide]
[1]
  inhibition at 1 µM: 97%
  pIC50: 7.30 to 8.00
[2]
  viability at 1.667 µM: 2%

## CCCc1cc(OCC)c2ccc(C(=O)NCCCc3ncc[nH]3)cc2n1 [Compound I-226, N-(3-(1H-imidazol-2-yl)propyl)-4-ethoxy-2-propylquinoline-7-carboxamide]
[1]
  inhibition at 1 µM: 86%
  pIC50: < 7.00
[2]
  viability at 1.667 µM: 14%

## CCOc1cc(-c2ccc(F)cc2)nc2cc(C(=O)NCCCc3ccc(C)nc3)ccc12 [Compound I-227, 4-ethoxy-2-(4-fluorophenyl)-N-[3-(6-methylpyridin-3-yl)propyl]quinoline-7-carboxamide]
[1]
  inhibition at 1 µM: 100%
  pIC50: > 8.00
[2]
  viability at 1.667 µM: 6%

## CCOc1cc(-c2ccc(F)cc2)nc2cc(C(=O)NCCCc3cncnc3)ccc12 [Compound I-228, 4-ethoxy-2-(4-fluorophenyl)-N-[3-(pyrimidin-5-yl)propyl]quinoline-7-carboxamide]
[1]
  inhibition at 1 µM: 94%
  pIC50: > 8.00
[2]
  viability at 1.667 µM: 5%

## O=C(NCCCc1ncc[nH]1)c1ccc2c(OCCO)cc(-c3ccc(F)cc3)nc2c1 [Compound I-229, 2-(4-fluorophenyl)-4-(2-hydroxyethoxy)-N-[3-(1H-imidazol-2-yl)propyl]quinoline-7-carboxamide]
[1]
  inhibition at 1 µM: 99%
  pIC50: > 8.00
[2]
  viability at 1.667 µM: 2%
